Common to all, as to assay: SelectScreen Kinase Profiling, single point inhibition and IC50 for off-target kinases
Holding throughout (assay type): biochemical

The target of assay [1] is off-target kinases (Homo sapiens, UniProt Q14680). The following applies: MELK, ZLYTE, ATP Km app.
Assay [2] addresses off-target kinases (Homo sapiens, UniProt P08631). As to conditions: HCK, ZLYTE, ATP Km app.
Assay [3] deals with off-target kinases (Homo sapiens, UniProt P78368). The following applies: CSNK1G2 (CK1 gamma 2); Cmpd1 1000 μM; ATP Km app; ZLYTE.
The target in assay [4] is T1, off-target kinases (Homo sapiens, UniProt Q16832, T654M).
T1 sequence (Q16832 22-855 T654M): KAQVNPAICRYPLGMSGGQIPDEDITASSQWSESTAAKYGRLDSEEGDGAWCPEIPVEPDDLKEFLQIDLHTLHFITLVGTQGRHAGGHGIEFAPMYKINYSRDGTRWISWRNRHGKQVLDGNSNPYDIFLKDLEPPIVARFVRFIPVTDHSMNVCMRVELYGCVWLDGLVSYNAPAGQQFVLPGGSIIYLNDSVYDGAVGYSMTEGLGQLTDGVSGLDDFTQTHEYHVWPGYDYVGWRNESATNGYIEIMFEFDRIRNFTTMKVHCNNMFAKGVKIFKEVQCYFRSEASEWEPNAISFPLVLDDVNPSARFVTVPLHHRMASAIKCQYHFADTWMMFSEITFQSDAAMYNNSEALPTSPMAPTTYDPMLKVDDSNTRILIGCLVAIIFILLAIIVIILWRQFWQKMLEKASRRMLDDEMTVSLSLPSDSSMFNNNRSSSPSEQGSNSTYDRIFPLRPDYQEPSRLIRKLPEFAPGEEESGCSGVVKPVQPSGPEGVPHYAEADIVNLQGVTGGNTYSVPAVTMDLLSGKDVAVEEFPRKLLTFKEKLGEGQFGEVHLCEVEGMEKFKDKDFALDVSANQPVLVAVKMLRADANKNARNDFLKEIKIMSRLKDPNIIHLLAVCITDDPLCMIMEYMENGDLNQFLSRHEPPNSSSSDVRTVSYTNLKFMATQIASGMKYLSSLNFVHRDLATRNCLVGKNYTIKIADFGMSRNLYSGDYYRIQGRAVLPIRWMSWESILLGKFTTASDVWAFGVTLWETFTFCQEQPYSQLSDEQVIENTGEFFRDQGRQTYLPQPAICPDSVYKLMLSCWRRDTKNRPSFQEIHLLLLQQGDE
As to conditions: DDR2 T654M, LanthaScreen Binding. (TR-FRET usually uses a lanthanide donor and a delayed reading to cut background.)

Where two headings read alike, the source gives them in different places.

Chain of off-target kinases (Homo sapiens, UniProt P08631) (P08631 whole entry): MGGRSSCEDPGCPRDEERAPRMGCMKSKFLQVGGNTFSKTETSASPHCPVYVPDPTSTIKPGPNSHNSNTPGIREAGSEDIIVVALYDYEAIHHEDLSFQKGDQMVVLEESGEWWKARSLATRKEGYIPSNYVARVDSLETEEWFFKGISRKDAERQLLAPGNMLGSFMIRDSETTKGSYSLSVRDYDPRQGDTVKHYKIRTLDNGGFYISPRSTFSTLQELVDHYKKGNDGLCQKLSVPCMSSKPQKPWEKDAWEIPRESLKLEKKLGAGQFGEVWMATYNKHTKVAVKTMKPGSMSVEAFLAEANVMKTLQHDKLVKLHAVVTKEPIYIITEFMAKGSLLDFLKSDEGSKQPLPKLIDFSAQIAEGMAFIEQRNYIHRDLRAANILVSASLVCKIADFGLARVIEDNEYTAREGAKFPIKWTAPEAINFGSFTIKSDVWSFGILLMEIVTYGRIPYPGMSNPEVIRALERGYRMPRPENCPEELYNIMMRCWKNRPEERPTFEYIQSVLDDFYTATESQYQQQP
Chain of off-target kinases (Homo sapiens, UniProt Q14680) (Q14680 whole entry): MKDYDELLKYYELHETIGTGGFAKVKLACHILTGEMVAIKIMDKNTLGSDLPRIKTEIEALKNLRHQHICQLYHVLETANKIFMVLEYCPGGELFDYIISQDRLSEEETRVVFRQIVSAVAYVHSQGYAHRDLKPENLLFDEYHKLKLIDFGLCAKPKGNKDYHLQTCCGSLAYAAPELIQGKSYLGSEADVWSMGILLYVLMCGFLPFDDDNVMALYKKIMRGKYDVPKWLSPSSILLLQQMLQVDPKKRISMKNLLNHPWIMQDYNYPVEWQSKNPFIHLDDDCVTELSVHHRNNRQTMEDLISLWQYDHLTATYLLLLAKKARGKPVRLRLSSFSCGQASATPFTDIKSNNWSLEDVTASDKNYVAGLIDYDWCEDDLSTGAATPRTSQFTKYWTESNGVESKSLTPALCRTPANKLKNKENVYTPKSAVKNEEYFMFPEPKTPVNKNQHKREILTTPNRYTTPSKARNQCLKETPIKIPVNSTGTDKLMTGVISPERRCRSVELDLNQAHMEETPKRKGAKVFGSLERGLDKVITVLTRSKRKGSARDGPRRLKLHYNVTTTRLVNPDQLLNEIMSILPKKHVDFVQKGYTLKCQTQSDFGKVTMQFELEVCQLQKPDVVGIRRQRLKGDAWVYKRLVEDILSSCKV
Chain of off-target kinases (Homo sapiens, UniProt P78368) (P78368 whole entry): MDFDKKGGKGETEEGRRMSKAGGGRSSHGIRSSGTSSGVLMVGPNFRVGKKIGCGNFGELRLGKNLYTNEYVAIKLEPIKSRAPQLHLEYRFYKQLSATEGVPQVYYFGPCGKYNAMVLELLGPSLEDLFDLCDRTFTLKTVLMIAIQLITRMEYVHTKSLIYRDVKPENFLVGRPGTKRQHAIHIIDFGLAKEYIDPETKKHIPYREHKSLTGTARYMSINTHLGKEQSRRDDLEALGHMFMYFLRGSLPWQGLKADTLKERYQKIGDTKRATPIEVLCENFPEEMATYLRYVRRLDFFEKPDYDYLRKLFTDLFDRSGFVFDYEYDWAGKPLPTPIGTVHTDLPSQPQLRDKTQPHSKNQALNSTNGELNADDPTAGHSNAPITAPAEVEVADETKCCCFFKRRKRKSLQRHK

`N#Cc1cc(-c2ncnc(Nc3ccc(N4CCN(C5COC5)CC4)cc3)n2)ccc1OC1CCOCC1` [Compound 1, 5-(4-((4-(4-(oxetan-3-yl)piperazin-1-yl)phenyl)amino)-1,3,5-triazin-2-yl)-2-((tetrahydro-2H-pyran-4-yl)oxy)benzonitrile]: the inhibition is 25% in assay [1] (read-out: % Inhibition 1); 22% in assay [1] (read-out: % Inhibition 2); 23% in assay [1] (read-out: % Inhibition Avg); 26% in assay [2] (read-out: % Inhibition 1); 28% in assay [2] (read-out: % Inhibition 2); 27% in assay [2] (read-out: % Inhibition Avg). The inhibition in assay [4] (read-out: % Inhibition 1) was found to be 56%; in assay [4] (read-out: % Inhibition 2), 57%; in assay [4] (read-out: % Inhibition Avg), 57%. Further, in assay [3], the “% Inhibition 1” value is given as −7%. The “% Inhibition 2” value in assay [3] is given as −16%. In addition, in assay [3], the “% Inhibition Avg” value is reported as −11%.

A word on the inhibition: it is the change of the read-out against control, counted positive when it falls.

The record behind these values is patent US11572590B2, “Methods for evaluating tumor cell spheroids using 3D microfluidic cell culture device” (Dana-Farber Cancer Institute, Inc., priority 2017, dated 2023).
